Laboratory results published in PMC12731105, “Design and Synthesis of New Quinoxaline Analogs to Regenerate Sensory Auditory Hair Cells” (Cells, 2025).
Read-outs that look alike come from different tables or passages of the source.

What was measured:
[1] = Plasma protein binding (rapid equilibrium dialysis); type: in vitro ADME, mice; conditions: mouse, plasma, mice plasma protein binding (footnote); RED, 10 µg/mL, four hours, 37 °C; read-out: PPB (% Bound) (converted)
mouse auditory function = assay: Auditory brainstem response (ABR); type: in vivo, mice (Mus musculus); conditions: for ABR vs control, 24 h treatment / ABR hearing vs control: C57BL/6J mice; for ABR vs control, 24 h treatment: 24 h post-treatment; for ABR hearing vs control: greater benefits at higher frequencies and at 48 and 72 h, Two-Way ANOVA, p < 0.01; for Frequency at which modest improvement in hearing threshold begins: audiometric threshold shift (ABR/DPOAE) vs vehicle-only controls
Description: C57BL/6J male and female mice between postnatal day 24 and 30 P-24-30) were randomized into control and experimental groups (9 mice per group per compound), with each experimental group receiving a single intraperitoneal (IP) injection of Qx-294 or Qx-301 at a dose of 300 mg/kg body weight, dissolved in dimethyl sulfoxide (DMSO). Controls consisted of treatment with DMSO alone (vehicle). A total of 90 adult wild-type C57/BL6 mice were used in this study. Based on the analysis, animals were examined at various times following treatment as described below.
Mice from all groups underwent auditory brainstem response (ABR) and distortion product otoacoustic emissions (DPOAEs) tests before the initiation of treatment with either compounds or vehicle, and at 24, 48, and 72 h post-treatment, as described below. After audiometric testing, pre-treatment mice were placed in a warm and clean cage and monitored until they were awake and able to remain upright in a sternal position. Alternatively, post-treatment mice had their cochleae processed for histological examination.
Mice were anesthetized with a ketamine (18 mg/mL) and xylazine (2 mg/mL) solution (5–9 μL per gram body weight injected intraperitoneally). Core body temperature was maintained at 37.0 ± 0.1 C using a homeothermic heating pad system (FHC, Inc., Bowdoin, ME, USA). Tone burst stimuli were generated and controlled using Tucker Davis Technologies (TDT, Gainesville, FL, USA) System III (RX6, PA5 components). Tone bursts at 8, 16, 32, and 41.2 kHz had 1.0 ms rise-fall times with 1.0 ms plateau (3 ms total duration) and alternating stimulus polarity. Stimuli for ABR testing were calibrated using a Bruel & Kjaar type 4138 ¼” microphone and Nexus type 2691 conditioning amplifier. Stimuli were calibrated in dB peSPL and presented via high-frequency transducers (TDT SA1 driver, MF1 speakers) coupled at the ear via PE tubing. Auditory stimuli were presented at a rate of 17 stimuli per second.

[2] = Cytotoxicity, MTT colorimetric microculture assay; type: cell-based; conditions: mouse, HEI-OC1 cells (auditory cell line), NCI criterion of cytotoxicity IC50 < 20 μg/mL
Description: The cytotoxicity of Qx-294 and Qx-301 compounds was assessed in the mouse auditory HEI-OC1 cell line using the (MTT) colorimetric microculture assay method as previously described. HEI-OC1 cells were cultured in DMEM (Corning, NY, USA, 10-013-CVC) supplemented with 10% fetal bovine serum (FBS) (Pansera) and 50 μg/mL ampicillin for 12 h. For cytotoxic assessment, increasing concentrations of Qx-294 and Qx-301 were added to a HEI-OC1 cell suspension (5 × 10^4 cells/well). Cell growth was determined 72 h later by adding 50 µL of MTT (2.5 mg/mL). This was reduced by mitochondrial dehydrogenase of viable cells in an insoluble blue formazan product during the 4 h contact period at 37 °C. After the supernatant was removed, the formazan crystals were solubilized by adding DMSO (100 µL). These plates were read at 570 nm with SpectraMax® M Series Multi-Mode Microplate Reader with Soft Max Pro 7.2 GxP Software (Molecular Devices, Sunnyvale, CA, USA). At each dose level of the compounds tested, as well as the untreated (vehicle-only) controls, absorbance values were recorded and compared between different treatment and time points to assess cell growth and viability.

[3] = system: zebrafish neuromast cells; assay: TUNEL assay in zebrafish neuromasts; type: in vivo, zebrafish (Danio rerio); conditions: 6 h incubation, any concentration tested
Description: Absorbance was measured with SpectraMax® M Series Multi-Mode Microplate Reader with Soft Max Pro 7.2 GxP Software (Molecular Devices, Sunnyvale, CA, USA), and the average OD in control cells was taken as 100% of viability. […] Mice treatment followed the same procedures as described in [18]. Following treatment, animals or tissue samples were incubated in Click-it EdU or Click-it Plus TUNEL kits (Thermo Scientific, Waltham, MA, USA), following the manufacturer’s instructions to label proliferating and apoptotic cells, respectively.

PAMPA permeability assay = type: in vitro ADME
Description: The parallel artificial membrane permeability assay (PAMPA), an artificial membrane that simulates a biological membrane, was used. A 96-well membrane filter-based microtiter plate system with donor and acceptor compartments separated by the membrane was employed. The compounds were dissolved in 5% DMSO in phosphate-buffered saline (PBS) solution with Lucifer yellow, a dye used to assess membrane integrity. The solution was placed in the donor well, and PBS was added to the acceptor well. The membrane was generated by dissolving lecithin in an inert organic solvent and placed onto a hydrophobic PVDF filter.

Neuro-2A = assay: TACS MTT cell proliferation / metabolic activity assay in Neuro-2A; type: cell-based, mouse; conditions: 0.1 to 100 μM
Description: HEI-OC1 cells derived from the mouse OC (kindly provided by Dr. F. Kalinec) were cultured under permissive conditions (33 °C, 10% CO2) as described in [22]. Additionally, we assessed the activity of Qx-derived compounds in the mouse neuroblastoma cell line, Neuro-2A, and the human fibrosarcoma HT-1080 (ATCC, Manassas, VA, USA) following the standard cell culture guidelines provided by the vendor.
In vitro cell proliferation effects of all ten initial compounds (Figure 1A,B) were tested on HEI-OC1, Neuro-2A and HT-1080 cells by TACS® 3-(4,5-dimethylthiazol-2-yl)-2,5-diphenyltetrazolium bromide (MTT) Cell Proliferation Assay (R&D Systems, Minneapolis, MN, USA, 4890-025-K), following the manufacturer’s protocol. Absorbance was measured with SpectraMax® M Series Multi-Mode Microplate Reader with Soft Max Pro 7.2 GxP Software (Molecular Devices, Sunnyvale, CA, USA), and the average OD in control cells was taken as 100% of viability. Upon selecting the most viable compounds (Qx-294 and Qx-301), we proceeded with in vivo experiments. For zebrafish treatment, animals were incubated for varied times with different concentrations (50, 100, 150, 200, 250, and 300 μg/mL) of Qx-294 or Qx-301 diluted in swimming (E3) media or administered via IP injections. Mice treatment followed the same procedures as described in [18]. Following treatment, animals or tissue samples were incubated in Click-it EdU or Click-it Plus TUNEL kits (Thermo Scientific, Waltham, MA, USA), following the manufacturer’s instructions to label proliferating and apoptotic cells, respectively.

Row | fraction unbound at 4 h, 10 µg/mL [1] | Papp at 16 h (PAMPA permeability assay; 16 h incubation, read-out: Permeability) [×10⁻⁶ cm/s] | Permeability (PAMPA permeability assay; 16 h incubation) | Papp at 16 h (PAMPA permeability assay; read-out: PAMPA permeability) [×10⁻⁶ cm/s] | Compound | ABR vs control, 24 h treatment (mouse auditory function) | ABR hearing vs control (mouse auditory function) | Frequency at which modest improvement in hearing threshold begins (mouse auditory function) [kHz] | IC50 at 72 h [2] [µg/mL] | Apoptosis (TUNEL) in neuromasts [3] | Proliferative state across all tested concentrations (Neuro-2A)
1 | ~0.68 | 0.77 ± 0.91 |  |  | c1ccc2nc(N3CCCC3)cnc2c1 [Qx-301, 2-(pyrrolidine)-quinoxaline] | no statistically significant differences | improved hearing for all test frequencies | ≥ 22.6 | > 20 | no signs of apoptosis | modest yet active proliferative state
2 | 0.115 |  | 3.5 ± 3.0 ×10^−6 cm/s^−1 | ~3.5 | c1ccc2nc(N3CCOCC3)cnc2c1 [Qx-294, 2-(morpholine)-quinoxaline] | no statistically significant differences | improved hearing for all test frequencies | ≥ 16 | > 20 | no signs of apoptosis | modest yet active proliferative state
